Experiments:
L. lactis LMGT 2705 = test: Relative MIC, inhibitory spectrum; type: cell-based, Lactococcus lactis; settings: relative to L. lactis IL 1403 = 1
[1] = tested on: Leuconostoc gelidium LMGT 2386; test: Relative MIC, inhibitory spectrum; type: cell-based; settings: relative to L. lactis IL 1403 = 1
L. lactis IL1403 = test: Relative MIC, inhibitory spectrum; type: cell-based, Lactococcus lactis; settings: the reference indicator, referred to as 1
[2] = tested on: C. tyrobutyricum LMGT 2511; test: Relative MIC, inhibitory spectrum; type: cell-based, Clostridium tyrobutyricum; settings: relative to L. lactis IL 1403 = 1
E. faecium = test: Antimicrobial activity against problematic bacteria; type: cell-based, Enterococcus faecium; settings: food sources
Procedure: (§1) To screen for bacteriocin producers with broad inhibition spectra (BIS), Lactococcus lactis, Lactobacillus sakei, Lactobacillus plantarum, Listeria innocua, and Staphylococcus aureus from the food and dairy environment were used as indicators in the first round of screening. The antimicrobial screening was performed using the agar diffusion bioassay as previously described (Holo et al., 1991, J. Bacteriol., 173, p 3879-3887). Briefly, indicator cells from overnight cultures were diluted 100-fold in 5 mL of BHI soft agar and plated out as a lawn on BHI agar plates. Potential bacteriocin producers at volumes of 3 μL were spotted on the indicator lawn and then incubated at appropriate temperatures for 24 h for cell growth and cell inhibition. Inhibition was detected as clear zones around the spotted cells.
(§2) As the antimicrobial activity of garvicin KS is relatively broad, we explored further its potential to kill a larger panel of important pathogens. The list contained 147 problematic or potentially problematic bacteria of species belonging to Listeria, Staphylococcus, Streptococcus and Enterococcus, isolated from food and clinical sources. In this assay, we compared the antimicrobial activity of garvicin KS with that of garvicin ML and nisin, the last one being known as a broad inhibition-spectrum bacteriocin (AIKhatib et al., 2014, PLOS One 9:e102246 doi:10.1371/joumal.pone.0102246). […]

L. plantarum LMGT 2357 = test: Relative MIC, inhibitory spectrum; type: cell-based, Lactobacillus plantarum; settings: relative to L. lactis IL 1403 = 1
[3] = tested on: Enterococcus avium LMGT 3465; test: Relative MIC, inhibitory spectrum; type: cell-based; settings: relative to L. lactis IL 1403 = 1
[4] = tested on: Staphylococcus aureus LMGT 3022; test: Relative MIC, inhibitory spectrum; type: cell-based; settings: relative to L. lactis IL 1403 = 1
[5] = tested on: Lactobacillus curvatus LMGT 2353; test: Relative MIC, inhibitory spectrum; type: cell-based; settings: relative to L. lactis IL 1403 = 1
L. monocytogenes = test: Antimicrobial activity against problematic bacteria; type: cell-based, Listeria monocytogenes
Procedure: as §1, §2

[6] = tested on: Listeria innocua LMGT 2710; test: Relative MIC, inhibitory spectrum; type: cell-based; settings: relative to L. lactis IL 1403 = 1
[7] = tested on: C. tyrobutyricum LMGT 2524; test: Relative MIC, inhibitory spectrum; type: cell-based, Clostridium tyrobutyricum; settings: relative to L. lactis IL 1403 = 1
[8] = tested on: Bacillus cereus LMGT 2805; test: Relative MIC, inhibitory spectrum; type: cell-based; settings: relative to L. lactis IL 1403 = 1
Staph. Aureus = test: Antimicrobial activity against problematic bacteria; type: cell-based, Staphylococcus aureus
Procedure: as §1, §2

Strep. Thermophylus = test: as above; type: cell-based, Streptococcus thermophylus; settings: food sources
Procedure: as §1, §2

[9] = tested on: L. monocytogenes LMGT 2604; test: Relative MIC, inhibitory spectrum; type: cell-based, Listeria monocytogenes; settings: relative to L. lactis IL 1403 = 1
L. curvatus LMGT 2355 = test: Relative MIC, inhibitory spectrum; type: cell-based, Lactobacillus curvatus; settings: relative to L. lactis IL 1403 = 1
[10] = tested on: Clostridium bifermentans LMGT 2519; test: Relative MIC, inhibitory spectrum; type: cell-based; settings: relative to L. lactis IL 1403 = 1

Substance: garvicin ML
- Relative MIC value (L. lactis LMGT 2705): ≤0.25
- Relative MIC value [1]: 32-64
- Relative MIC value (L. lactis IL1403): 1
- Relative MIC value [2]: 32
- number of sensitive strains / number of strains tested (E. faecium): 7/7
- Relative MIC value (L. plantarum LMGT 2357): 64
- Relative MIC value [3]: ≤0.25
- Relative MIC value [4]: 512
- Relative MIC value [5]: 16
- number of sensitive strains / number of strains tested (L. monocytogenes; clinical sources): 0/4
- number of sensitive strains / number of strains tested (L. monocytogenes; food sources): 0/20
- Relative MIC value [6]: 32
- Relative MIC value [7]: 32-64
- Relative MIC value [8]: 64
- number of sensitive strains / number of strains tested (Staph. Aureus; clinical sources): 9/25
- number of sensitive strains / number of strains tested (Staph. Aureus; food sources): 4/28
- number of sensitive strains / number of strains tested (Strep. Thermophylus): 8/8
- Relative MIC value [9]: 32
- Relative MIC value (L. curvatus LMGT 2355): 2-4
- Relative MIC value [10]: 16-32

— US10781236B2, “Bacteriocin composition and method” (priority 2015, dated 2020)
